In patent publication US6743812B1, “Pharmaceutical compositions and methods for use” (Targacept, Inc., priority 2000, dated 2004):

Columns and labels:
CNS nicotinic receptors = CNS nicotinic receptors (Rattus norvegicus, UniProt P09483+P12390); assay: Determination of binding to relevant receptor sites; conditions: binding to certain CNS nicotinic receptors; read-out: Ki (inhibition constant, calculated from IC50 by the method of Cheng et al.)
Procedure: Determination of Binding to Relevant Receptor Sites
Binding of the compounds to relevant receptor sites was determined in accordance with the techniques described in U.S. Pat. No. 5,597,919 to Dull et al. Inhibition constants (Ki values), reported in nM, were calculated from the IC50 values using the method of Cheng et al., Biochem, Pharnacol. 22:3099 (1973).

[1] = Water absorption (hygroscopicity) of salts; type: physicochemical
Water solubility of salt = type: physicochemical
[2] = Physical and chemical stability of salt; type: physicochemical

Chain of CNS nicotinic receptors (P09483 31-630): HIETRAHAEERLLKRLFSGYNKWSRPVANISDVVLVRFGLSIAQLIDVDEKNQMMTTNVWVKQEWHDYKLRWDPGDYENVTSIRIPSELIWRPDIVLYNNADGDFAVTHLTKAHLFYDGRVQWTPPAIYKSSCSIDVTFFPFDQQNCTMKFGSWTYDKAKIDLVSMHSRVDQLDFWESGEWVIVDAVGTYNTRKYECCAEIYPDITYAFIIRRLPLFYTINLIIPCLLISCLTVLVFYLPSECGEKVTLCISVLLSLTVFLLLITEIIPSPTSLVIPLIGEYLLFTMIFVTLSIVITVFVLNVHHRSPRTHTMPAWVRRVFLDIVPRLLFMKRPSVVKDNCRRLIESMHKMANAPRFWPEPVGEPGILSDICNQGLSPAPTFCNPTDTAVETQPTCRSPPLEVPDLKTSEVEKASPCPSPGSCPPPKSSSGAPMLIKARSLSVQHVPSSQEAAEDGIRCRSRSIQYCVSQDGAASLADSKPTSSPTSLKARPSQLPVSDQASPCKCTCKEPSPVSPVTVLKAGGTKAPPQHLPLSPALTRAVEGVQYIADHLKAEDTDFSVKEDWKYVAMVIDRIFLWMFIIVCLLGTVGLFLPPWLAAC
Chain of CNS nicotinic receptors (P12390 25-500): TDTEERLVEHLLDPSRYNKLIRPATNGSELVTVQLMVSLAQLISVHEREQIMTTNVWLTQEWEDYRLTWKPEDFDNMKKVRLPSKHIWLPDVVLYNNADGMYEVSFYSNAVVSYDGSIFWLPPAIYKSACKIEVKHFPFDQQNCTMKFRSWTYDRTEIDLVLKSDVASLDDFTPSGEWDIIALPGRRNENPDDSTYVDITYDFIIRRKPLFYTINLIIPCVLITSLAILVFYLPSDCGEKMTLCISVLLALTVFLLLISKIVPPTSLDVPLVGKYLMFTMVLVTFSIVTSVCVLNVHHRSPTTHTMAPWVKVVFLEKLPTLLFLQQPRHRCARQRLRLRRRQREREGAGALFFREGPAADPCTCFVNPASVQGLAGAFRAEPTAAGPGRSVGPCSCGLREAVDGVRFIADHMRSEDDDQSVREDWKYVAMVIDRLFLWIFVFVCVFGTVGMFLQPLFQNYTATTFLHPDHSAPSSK

| SMILES | Ki (CNS nicotinic receptors) [nM] | amount of water absorbed ([1]; room temperature and 90% relative humidity) [%] | hygroscopicity compared with other salts ([1]; single salt: versus corresponding salt derived from galactaric acid (mucic acid)) | water solubility (Water solubility of salt) | stability [2] | amount of water absorbed ([1]; 40° C. and 70% relative humidity) [%] |
| --- | --- | --- | --- | --- | --- | --- |
| CN[C@@H](C)C/C=C/c1cncc(OC(C)C)c1 [Sample No. 2, (2S)-(4E)-N-methyl-5-[3-(5-isopropoxypyridin)yl]-4-penten-2-amine hemi-(di-p-toluoyl-D-tartrate)] | 5 | 3.2 | less hygroscopic | water soluble | physically and chemically stable | – |
| CN[C@@H](C)C/C=C/c1cncc(OC(C)C)c1.CN[C@@H](C)C/C=C/c1cncc(OC(C)C)c1.O=C(O)[C@@H](O)[C@H](O)[C@H](O)[C@@H](O)C(=O)O [hemigalactarate of (2S)-(4E)-N-methyl-5-[3-(5-isopropoxypyridin)yl)]-4-penten-2-amine, reference compound] | – | – | – | – | – | 11.8 |
| CN[C@@H](C)C/C=C/c1cncc(OC(C)C)c1 [Sample No. 1, (2S)-(4E)-N-methyl-5-[3-(5-isopropoxypyridin)yl]-4-penten-2-amine hemi-(di-p-toluoyl-L-tartrate)] | 6 | – | – | – | – | – |
